According to patent US12384777B2 (Tay Therapeutics Limited, priority 2019, dated 2025):
Read-outs that look alike come from different tables or passages of the source.

Key:
[1] = Solubility in topical formulations; type: physicochemical; settings: thermodynamic from solid, 5 hr at 32° C.
Experimental: The solubilities of solid exemplary compounds were determined in a selection of solvents and solvent combinations (Transcutol, 50:50 Transcutol:water, Labrasol, propylene glycol and 1:5:4 ethanol:propylene glycol:water), after equilibration. An appropriate volume of each combination was added to a manual weighing of solid compound to provide a 20 mg/mL concentration. The resulting suspension was shaken at 1000 rpm for 5 hr at 32° C. before centrifugation at 13,000×g for 10 min to pellet any precipitate. The supernatant solution was removed and inserted into a HPLC vial and quantified by HPLC-UV against a calibration of a known concentration of the compound in DMSO.

[2] = Stability in human skin S9 fraction; type: in vitro ADME; settings: human, human skin S9 fraction, pH 7.4; 0.3 mg/mL S9, NADPH, UDPGA, 0.5 μM compound; read-out: T1/2 (min) in human skin S9 fractions
Experimental: An incubation mixture was prepared containing 50 mM potassium phosphate buffer, pH 7.4), 0.3 mg/mL human skin S9 (Sekisui Xenotech), NADPH (final conc 0.8 mg/mL), UDPGA (final conc 0.16 mg/mL) and warmed to 37° C. for 5 min. The reaction was initiated upon addition of test compound (final concentration 0.5 μM). Immediately, at time zero, then at 3, 6, 15, 30, 60, 120 and 180 min, an aliquot (50 μL) of the incubation mixture was removed and mixed with acetonitrile (100 μL) to terminate the reaction. Internal standard was added to all samples, the samples centrifuged to sediment precipitated protein and the plates then sealed prior to UPLC-MS/MS analysis using a Quattro Premier XE (Waters corporation, USA).
Grafit (Erithacus Ltd) was used to calculate the exponential decay and consequently the rate constant (k) from the ratio of peak area of test compound to internal standard at each timepoint. The half life (T1/2) of each test compound was determined using the following equation: T1/2=0.693/k

[3] = Hydrolytic stability at a range of pHs; type: physicochemical; settings: for decomposition at all pH values tested: pH 4.0, 5.5 and 7.4, text summary; for pH 4.0 % decomposition: pH 4.0 buffer; for pH 4.0 % decomposition / pH 5.5 % decomposition / pH 7.4 % decomposition: 60° C., 6 days; for pH 5.5 % decomposition: pH 5.5 buffer; for pH 7.4 % decomposition: pH 7.4 buffer
Experimental: To test the hydrolytic stability a 1 mg/mL solution of test materials was made in DMSO (0.1% solution). To 300 μL of each solution in a HPLC vials was added 1200 μL of one of the following: pH 4.0 buffer—left at 60° C. for 5 days. Samples taken t=0 hr and 6 days pH 5.5 buffer—left at 60° C. for 5 days. Samples taken t=0 hr and 6 days pH 7.4 buffer—left at 60° C. for 5 days. Samples taken t=0 hr and 6 days A 100 μL aliquot was taken at each time point and added to 900 μL of DMSO. This sample was used to determine % decomposition.
% decomposition was measured with a Bruker MicrOTOF II focus ESI Mass Spectrometer connected in parallel to Dionex Ultimate 3000 RSLC system with diode array detector.

[4] = tested on: healthy human skin stimulated by a Th2 or Th17 biasing cocktail; experiment: Th2 and Th17 stimulation of human skin explants, IL-4 / IL-17A mRNA; type: cell-based
Experimental: • 1. Freshly excised healthy human skin tissue from abdominoplasties is defatted, cleaned and sectioned into 7 mm biopsies. • 2. The biopsies are placed in Transwell® inserts with the epidermis apical and exposed to air and the dermis submerged in media in the basal chamber. • 3. The biopsies are pre-treated overnight at 37° C., 5% CO2 with different compounds and controls added to the media in the basal chamber. • 4. The next day, contents of the basal chamber is replaced with fresh media containing the test compound and a stimulation cocktail for either Th2 inflammation (proprietary Medpharm cocktail) or Th17 inflammation (mix of antibodies against CD3, CD28, IL-4, IFNγ and recombinant IL-1β, IL-6, IL-21, TGF-β). • 5. The biopsies are incubated at 37° C., 5% CO2 for a further 24 hrs. • 6. After harvesting, the biopsies are cut in half, and one half is homogenized and used for RNA extraction by standard methods. IL-4 or IL-17A is assessed by RT-qPCR.

[5] = Skin penetration (Franz cell); type: in vitro ADME; settings: epidermis of pig/human skin after 24 hour exposure
Experimental: A dosing solution was prepared for each test compound at a saturated concentration in an appropriate formulation mixture. The positive control, caffeine (final concentration 10 mg/mL), was prepared in 50:50 transcutol/water. Warm, degassed phosphate buffered saline (PBS) was applied to the receiving chambers of each jacketed Franz cell (1 cm containing a magnetic stirring bar). Pig/Human skin was removed from −80° C. storage and cut to size (˜2 cm^2) using a scalpel. The skin was then allowed to thaw at RT before being placed into warmed PBS for 10 min. Each skin piece was then dried before being placed onto the orifice of the Franz cell, removing any bubbles that occurred. […]
A calibration line was prepared in PBS (5000 ng/mL-0.2 ng/mL). […] All samples were quantified using UPLC-MS/MS (Waters Xevo TQ-S).
The concentration of compound present at each time point was corrected for the addition of fresh buffer. By plotting the concentration of compound vs time, the J flux and T lag could be calculated (values for caffeine should be approximately J Flux: 0.9-1.1 μg/cm/hr, Tlag: 244-257 min, ˜20% of dose present in receiving chamber after 24 hrs, mass balance 70-90%).
Skin extraction samples were corrected for dilution factor and volume of extraction solution. The quantity of dose measured in skin layers and time point samples were used to measure the mass balance of the experiment.

[6] = Labrasol, oil or lipid, read-out: Solubility in LB (Labrasol)
[7] = Transcutol, organic solvent or mixture, read-out: Solubility in TC (Transcutol)
[8] = Transcutol:water 1:1, aqueous with cosolvent or surfactant or cyclodextrin, read-out: Solubility in TC:water 1:1
[9] = ethanol:propylene glycol:water 1:5:4, aqueous with cosolvent or surfactant or cyclodextrin, read-out: Solubility in EtOH:PG:water 1:5:4
[10] = propylene glycol, organic solvent or mixture, read-out: Solubility in PG (Propylene glycol)

solubility at 5 hr [1, 6] [µg/mL] | solubility at 5 hr [1, 7] [µg/mL] | solubility at 5 hr [1, 8] [µg/mL] | solubility at 5 hr [1, 9] [µg/mL] | solubility at 5 hr [1, 10] [µg/mL] | half-life at 0.5 μM [2] [min] | decomposition at all pH values tested [3] [%] | pH 4.0 % decomposition [3] [%] | pH 5.5 % decomposition [3] [%] | pH 7.4 % decomposition [3] [%] | Epidermal concentration [5] [µM] | SMILES | % reduction in IL-4 mRNA (IL-4) ([4]; 2.5 μM, Th2 biasing cocktail) | % reduction in IL-17A mRNA (IL-17) ([4]; 2.5 μM, Th17 biasing cocktail) | reduction of IL-4 or IL-17 levels ([4]; Th2 or Th17 biasing cocktail) [%]
1000 to 10000 | > 10000 | 1000 to 10000 | 1000 to 10000 | 1000 to 10000 | > 120 | < 5 | 0 | 0 | 0 | 27 | Cn1cc(-c2cccc(O)c2Oc2ccccc2)c2cc[nH]c2c1=O [Example 1, 4-(3-hydroxy-2-phenoxyphenyl)-6-methyl-1,6-dihydro-7H-pyrrolo[2,3-c]pyridin-7-one] | +++ (> 75% reduction) | +++ (> 75% reduction) | > 50
> 10000 | > 10000 | > 10000 | 1000 to 10000 | > 10000 | > 120 | < 5 | 0 | 0 | 0 |  | Cn1cc(-c2c(O)cccc2Oc2ccccc2)c2cc[nH]c2c1=O [Example 3, 4-(2-hydroxy-6-phenoxyphenyl)-6-methyl-1,6-dihydro-7H-pyrrolo[2,3-c]pyridin-7-one] |  |  | 
